Several values for one entry are separate records, joined by “and”; a condition that tells them apart may be missing. Identical values can stand only once.
Assay: Extrapolated human dosimetry (OLINDA/EXM, ICRP-89 phantoms)
Description: To address inter-animal variability, the TIACs for each source organ were calculated from both the mean nTACs and the nTACs obtainend from fitting the mean ± 1 standard deviation (SD) of the normalized time-activity data, providing upper and lower bounds.
The mice-to-human TIAC extrapolation accounted for species-specific differences in relative source organ masses, m(organ), as compared to the total body weight (WB), for the mice (m) and human (h) models respectively.
The human organ masses, m(organ)h, were obtained from ICRP-89 adult male and female reference phantoms, while the murine organ masses, m(organ)m, were derived from the standard MOBY mouse model. The extrapolated human TIACs, TIACh were entered in the OLINDA/EXM software to compute the absorbed doses to target organs and the effective dose for adult male, female, and gender-averaged human models. […]
The TIACs, for [177Lu]Lu-DOTAGA.Glu.(FAPI)2 and [177Lu]Lu-DO3A.Glu.(FAPI)2, were determined by time integration of the nTACs. To account for the inter-animal variability, the TIACs for each source organ were calculated using both the mean nTACs and the nTACs obtainend from fitting the mean ±1 standard deviation (SD) of the normalized time-activity data. This approach provided the upper and the lower bounds for the estimated TIACs.
The mice-to-human TIAC extrapolation was obtained considering the different (species-specific) relative source organ masses, m(organ), as compared to the total body weight (WB), for the mice (m) and human (h) models respectively.
The human organ masses, m(organ)h, were obtained from the adult male and female reference models phantoms defined in ICRP-89, while the murine organ masses, m(organ)m, were derived from the standard MOBY mouse model. The extrapolated human TIACs values, TIACh, for each source organ were input into the kinetic module of the OLINDA/EXM software (version 2.1, HERMES Medical Solutions AB, Stockholm, Sweden) to compute the absorbed doses to target organs and the effective dose for adult male, female, and gender-averaged human models. […]

[1] = ICRP 89 Adult Female, extrapolated
[2] = ICRP 89 Adult Male, extrapolated

N#C[C@@H]1CC(F)(F)CN1C(=O)CNC(=O)c1ccnc2ccc(OCCCCNC(=O)CC[C@H](NC(=O)CCC(C(=O)O)N3CCN(CC(=O)[O-])CCN(CC(=O)[O-])CCN(CC(=O)[O-])CC3)C(=O)NCCCCOc3ccc4nccc(C(=O)NCC(=O)N5CC(F)(F)C[C@H]5C#N)c4c3)cc12.[161Tb+3] (stereo partly drawn) [[^161Tb]Tb-DOTAGA.Glu.(FAPI)2]
Absorbed dose (AD average) Adrenals [1]: 2.06E-02 mGy/Mbq
Absorbed dose (AD average) Brain [1]: 4.11E-02 mGy/Mbq
Absorbed dose (AD average) Breasts [1]: 3.94E-02 mGy/Mbq
Absorbed dose (AD average) Esophagus [1]: 4.21E-02 mGy/Mbq
Absorbed dose (AD average) Eyes [1]: 4.11E-02 mGy/Mbq
Absorbed dose (AD average) Gallbladder Wall [1]: 4.47E-02 mGy/Mbq
Absorbed dose (AD average) Heart Wall [1]: 6.03E-02 mGy/Mbq
Absorbed dose (AD average) Kidneys [1]: 6.83E-02 ± 0.003 mGy/Mbq and 6.83E-02 mGy/Mbq
Absorbed dose (AD average) Left colon [1]: 4.20E-02 mGy/Mbq
Absorbed dose (AD average) Liver [1]: 2.78E-01 ± 0.02 mGy/Mbq and 2.78E-01 mGy/Mbq
Absorbed dose (AD average) Lungs [1]: 6.37E-02 ± 0.01 mGy/Mbq and 6.37E-02 mGy/Mbq
Absorbed dose (AD average) Osteogenic Cells [1]: 1.23E-01 ± 0.01 mGy/Mbq and 1.23E-01 mGy/Mbq
Absorbed dose (AD average) Ovaries [1]: 4.17E-02 mGy/Mbq
Absorbed dose (AD average) Pancreas [1]: 5.34E-02 ± 0.003 mGy/Mbq and 5.34E-02 mGy/Mbq
Absorbed dose (AD average) Rectum [1]: 4.17E-02 mGy/Mbq
Absorbed dose (AD average) Red Marrow [1]: 4.59E-02 ± 0.01 mGy/Mbq and 4.59E-02 mGy/Mbq
Absorbed dose (AD average) Right colon [1]: 4.24E-02 mGy/Mbq
Absorbed dose (AD average) Salivary Glands [1]: 1.73E-01 ± 0.01 mGy/Mbq and 1.73E-01 mGy/Mbq
Absorbed dose (AD average) Small Intestine [1]: 4.17E-02 mGy/Mbq
Absorbed dose (AD average) Spleen [1]: 4.83E-02 ± 0.01 mGy/Mbq and 4.83E-02 mGy/Mbq
Absorbed dose (AD average) Stomach Wall [1]: 4.21E-02 mGy/Mbq
Absorbed dose (AD average) Thymus [1]: 4.16E-02 mGy/Mbq
Absorbed dose (AD average) Thyroid [1]: 4.05E-02 mGy/Mbq
Absorbed dose (AD average) Total Body [1]: 6.01E-02 ± 0.01 mGy/Mbq and 6.01E-02 mGy/Mbq
Absorbed dose (AD average) Urinary Bladder Wall [1]: 4.10E-02 mGy/Mbq
Absorbed dose (AD average) Uterus [1]: 4.14E-02 mGy/Mbq
Effective dose (average) [1]: 5.28E-02
Absorbed dose (AD average) Adrenals [2]: 1.63E-02 mGy/Mbq
Absorbed dose (AD average) Brain [2]: 2.76E-02 mGy/Mbq
Absorbed dose (AD average) Esophagus [2]: 2.88E-02 mGy/Mbq
Absorbed dose (AD average) Eyes [2]: 2.76E-02 mGy/Mbq
Absorbed dose (AD average) Gallbladder Wall [2]: 3.50E-02 mGy/Mbq
Absorbed dose (AD average) Heart Wall [2]: 5.00E-02 mGy/Mbq
Absorbed dose (AD average) Kidneys [2]: 5.60E-02 ± 0.002 mGy/Mbq and 5.60E-02 mGy/Mbq
Absorbed dose (AD average) Left colon [2]: 1.18E-01 mGy/Mbq
Absorbed dose (AD average) Liver [2]: 2.29E-01 ± 0.02 mGy/Mbq and 2.29E-01 mGy/Mbq
Absorbed dose (AD average) Lungs [2]: 5.19E-02 ± 0.004 mGy/Mbq and 5.19E-02 mGy/Mbq
Absorbed dose (AD average) Osteogenic Cells [2]: 1.24E-01 ± 0.01 mGy/Mbq and 1.24E-01 mGy/Mbq
Absorbed dose (AD average) Pancreas [2]: 4.25E-02 ± 0.002 mGy/Mbq and 4.25E-02 mGy/Mbq
Absorbed dose (AD average) Prostate [2]: 2.77E-02 mGy/Mbq
Absorbed dose (AD average) Rectum [2]: 1.17E-01 mGy/Mbq
Absorbed dose (AD average) Red Marrow [2]: 3.37E-02 ± 0.003 mGy/Mbq and 3.37E-02 mGy/Mbq
Absorbed dose (AD average) Right colon [2]: 7.38E-02 mGy/Mbq
Absorbed dose (AD average) Salivary Glands [2]: 1.43E-01 ± 0.01 mGy/Mbq and 1.43E-01 mGy/Mbq
Absorbed dose (AD average) Small Intestine [2]: 5.69E-02 ± 0.02 mGy/Mbq and 5.69E-02 mGy/Mbq
Absorbed dose (AD average) Spleen [2]: 3.92E-02 ± 0.01 mGy/Mbq and 3.92E-02 mGy/Mbq
Absorbed dose (AD average) Stomach Wall [2]: 4.15E-02 mGy/Mbq
Absorbed dose (AD average) Testes [2]: 2.65E-02 mGy/Mbq
Absorbed dose (AD average) Thymus [2]: 2.77E-02 mGy/Mbq
Absorbed dose (AD average) Thyroid [2]: 2.76E-02 mGy/Mbq
Absorbed dose (AD average) Total Body [2]: 4.51E-02 ± 0.01 mGy/Mbq and 4.51E-02 mGy/Mbq
Absorbed dose (AD average) Urinary Bladder Wall [2]: 2.75E-02 mGy/Mbq
Effective dose (average) (ICRP 89 Adult Male, extrapolated, in mSv/MBq (unit assumed)): 4.69E-02
higher tissue doses vs. the 177Lu-labeled analogs (human extrapolation, average over tissues): ~ 38%
